Laboratory results from patent US10045990B2, “ERBB4 inhibitors and methods of use thereof” (Arizona Board of Regents on behalf of Arizona State …, priority 2015, dated 2018).

Legend:
EPHA1 = molecular target: T1, EPHA1 (Homo sapiens, UniProt P21709); experiment: NAPPA array kinase autophosphorylation assay; format: biochemical; conditions: DMSO = 100
T1 construct: made in house; host or cells: human cell-free coupled transcription-translation (1-Step Human Coupled IVT), on the slide
Method: (§1) Protein microarrays were generated using NAPPA (Nucleic acid programmable protein array) methodology, which permits the use of freshly expressed proteins for functional assays (FIG. 1). In NAPPA, cDNAs coding for the target of interest are cloned into an expression vector, which generates a fusion (Halo Tag, GST, etc.) to the target, and spotted onto a glass slide. Then to each spot, a HeLa cell in vitro transcription-translation reagent is added, whereby the fusion gene is transcribed into mRNA and translated. The nascent proteins are captured to the slide with antibody to the fusion partner (i.e., HaloTag-ligand, α-GST antibody) that is spotted adjacent to the DNA during the manufacture of the array. This method allows for up to thousands of protein targets to be arrayed. NAPPA microarrays can be expressed using an in vitro transcription and translation system (IVTT), and the anti-tag antibody captures newly synthesized proteins. Following expression, the microarrays were treated with phosphatase to remove any phosphorylation that occurred during the expression of the proteins.
(§2) De-phosphorylated arrays were then incubated with kinase buffer containing various concentrations of ATP and/or kinase inhibitors. The kinase activity was measured as end point assay using anti-phopho tyrosine antibody linked to cy3 as the detecting agent (FIG. 2). The data was normalized using positive control features present in each array.
(§3) NAPPA kinase microarrays we generated with virtually all protein-tyrosine kinases from the human genome. The coding sequence for each tyrosine kinase was clone into an expression plasmid and immobilized on the microarray surface, with one protein kinase per feature. After the microarray was expressed, any phosphorylation that occurred during the expression step was removed by a treatment with lambda phosphatase.
(§4) Unphosphorylated microarrays were then incubated with a kinase buffer (25 mM Tris-HCl (pH 7.5), 5 mM beta-glycerophosphate, 2 mM dithiothreitol (DTT), 0.1 mM Na3VO4, 10 mM MgCl2) supplemented with […] and/or kinase inhibitors (concentration ranging from 0-10 uM). The kinase autophosphorylation activity was measured through the levels of phosphorylation present in each feature and was detected by phospho-tyrosine antibody. […] Staurosporine is a pan kinase inhibitor used as a control.
(§5) NAPPA arrays suitable for measuring the activity of protein kinases and evaluating the selectivity of kinase inhibitors were produced using a variation of the published protocol (Proteomics Clin Appl. 2013 June; 7(5-6):372-7.). Briefly, NAPPA printing mix was prepared with plasmid DNA coding for genes of interest, anti-flag antibody, cross-linker and poly-lysine. Samples were agitated for 90 minutes at 1200 rpm at RT and printed in quadruplicate in aminopropyltriethoxysilane coated glass slides.
(§6) Arrays were stored in an airtight container at room temperature until use.

ERBB4/HER4 = molecular target: T2, ERBB4/HER4 (Homo sapiens, UniProt Q15303); experiment: NAPPA array kinase autophosphorylation assay; format: biochemical; conditions: DMSO = 100
T2 construct: made in house; host or cells: human cell-free coupled transcription-translation (1-Step Human Coupled IVT), on the slide
Method: as §1, §2, §3, §4, §5, §6

SYK = SYK (Homo sapiens, UniProt P43405); experiment: NAPPA array kinase autophosphorylation assay; format: biochemical; conditions: DMSO = 100
Method: as §1, §2, §3, §4, §5, §6

FGFR1 = molecular target: T3, FGFR1 (Homo sapiens, UniProt P11362); experiment: NAPPA array kinase autophosphorylation assay; format: biochemical; conditions: DMSO = 100
T3 construct: made in house; host or cells: human cell-free coupled transcription-translation (1-Step Human Coupled IVT), on the slide
Method: as §1, §2, §3, §4, §5, §6

ERBB3/HER3 = molecular target: T4, ERBB3/HER3 (Homo sapiens, UniProt P21860); experiment: NAPPA array kinase autophosphorylation assay; format: biochemical; conditions: DMSO = 100
T4 construct: made in house; host or cells: human cell-free coupled transcription-translation (1-Step Human Coupled IVT), on the slide
Method: as §1, §2, §3, §4, §5, §6

HCK = molecular target: T5, HCK (Homo sapiens, UniProt P08631); experiment: NAPPA array kinase autophosphorylation assay; format: biochemical; conditions: DMSO = 100
T5 construct: made in house; host or cells: human cell-free coupled transcription-translation (1-Step Human Coupled IVT), on the slide
Method: as §1, §2, §3, §4, §5, §6

TNK2 = molecular target: T6, TNK2 (Homo sapiens, UniProt Q07912); experiment: NAPPA array kinase autophosphorylation assay; format: biochemical; conditions: DMSO = 100
T6 construct: made in house; host or cells: human cell-free coupled transcription-translation (1-Step Human Coupled IVT), on the slide
Method: as §1, §2, §3, §4, §5, §6

EGFR/ERBB1 = molecular target: T7, EGFR/ERBB1 (Homo sapiens, UniProt P00533); experiment: NAPPA array kinase autophosphorylation assay; format: biochemical; conditions: DMSO = 100
T7 construct: made in house; host or cells: human cell-free coupled transcription-translation (1-Step Human Coupled IVT), on the slide
Method: as §1, §2, §3, §4, §5, §6

DYRK2 = molecular target: T8, DYRK2 (Homo sapiens, UniProt Q92630); experiment: NAPPA array kinase autophosphorylation assay; format: biochemical; conditions: DMSO = 100
T8 construct: made in house; host or cells: human cell-free coupled transcription-translation (1-Step Human Coupled IVT), on the slide
Method: as §1, §2, §3, §4, §5, §6

Tec = molecular target: T9, Tec (Homo sapiens, UniProt P42680); experiment: NAPPA array kinase autophosphorylation assay; format: biochemical; conditions: DMSO = 100
T9 construct: made in house; host or cells: human cell-free coupled transcription-translation (1-Step Human Coupled IVT), on the slide
Method: as §1, §2, §3, §4, §5, §6

FGFR4 = molecular target: T10, FGFR4 (Homo sapiens, UniProt P22455); experiment: NAPPA array kinase autophosphorylation assay; format: biochemical; conditions: DMSO = 100
T10 construct: made in house; host or cells: human cell-free coupled transcription-translation (1-Step Human Coupled IVT), on the slide
Method: as §1, §2, §3, §4, §5, §6

TESK2 = molecular target: T11, TESK2 (Homo sapiens, UniProt Q96S53); experiment: NAPPA array kinase autophosphorylation assay; format: biochemical; conditions: DMSO = 100
T11 construct: made in house; host or cells: human cell-free coupled transcription-translation (1-Step Human Coupled IVT), on the slide
Method: as §1, §2, §3, §4, §5, §6

EPHA3 = molecular target: T12, EPHA3 (Homo sapiens, UniProt P29320); experiment: NAPPA array kinase autophosphorylation assay; format: biochemical; conditions: DMSO = 100
T12 construct: made in house; host or cells: human cell-free coupled transcription-translation (1-Step Human Coupled IVT), on the slide
Method: as §1, §2, §3, §4, §5, §6

EPHA7 = molecular target: T13, EPHA7 (Homo sapiens, UniProt Q15375); experiment: NAPPA array kinase autophosphorylation assay; format: biochemical; conditions: DMSO = 100
T13 construct: made in house; host or cells: human cell-free coupled transcription-translation (1-Step Human Coupled IVT), on the slide
Method: as §1, §2, §3, §4, §5, §6

YES1 = molecular target: T14, YES1 (Homo sapiens, UniProt P07947); experiment: NAPPA array kinase autophosphorylation assay; format: biochemical; conditions: Yes1 (second entry), DMSO = 100
T14 construct: made in house; host or cells: human cell-free coupled transcription-translation (1-Step Human Coupled IVT), on the slide

OVKATE = conditions: 1 uM, 7 days, Trypan blue exclusion, vs DMSO
COV318 = experiment: cell growth / viable cell count in ERBB4-overexpressing, BTK-negative cell line; format: cell-based, human

T1 sequence (P21709 26-976): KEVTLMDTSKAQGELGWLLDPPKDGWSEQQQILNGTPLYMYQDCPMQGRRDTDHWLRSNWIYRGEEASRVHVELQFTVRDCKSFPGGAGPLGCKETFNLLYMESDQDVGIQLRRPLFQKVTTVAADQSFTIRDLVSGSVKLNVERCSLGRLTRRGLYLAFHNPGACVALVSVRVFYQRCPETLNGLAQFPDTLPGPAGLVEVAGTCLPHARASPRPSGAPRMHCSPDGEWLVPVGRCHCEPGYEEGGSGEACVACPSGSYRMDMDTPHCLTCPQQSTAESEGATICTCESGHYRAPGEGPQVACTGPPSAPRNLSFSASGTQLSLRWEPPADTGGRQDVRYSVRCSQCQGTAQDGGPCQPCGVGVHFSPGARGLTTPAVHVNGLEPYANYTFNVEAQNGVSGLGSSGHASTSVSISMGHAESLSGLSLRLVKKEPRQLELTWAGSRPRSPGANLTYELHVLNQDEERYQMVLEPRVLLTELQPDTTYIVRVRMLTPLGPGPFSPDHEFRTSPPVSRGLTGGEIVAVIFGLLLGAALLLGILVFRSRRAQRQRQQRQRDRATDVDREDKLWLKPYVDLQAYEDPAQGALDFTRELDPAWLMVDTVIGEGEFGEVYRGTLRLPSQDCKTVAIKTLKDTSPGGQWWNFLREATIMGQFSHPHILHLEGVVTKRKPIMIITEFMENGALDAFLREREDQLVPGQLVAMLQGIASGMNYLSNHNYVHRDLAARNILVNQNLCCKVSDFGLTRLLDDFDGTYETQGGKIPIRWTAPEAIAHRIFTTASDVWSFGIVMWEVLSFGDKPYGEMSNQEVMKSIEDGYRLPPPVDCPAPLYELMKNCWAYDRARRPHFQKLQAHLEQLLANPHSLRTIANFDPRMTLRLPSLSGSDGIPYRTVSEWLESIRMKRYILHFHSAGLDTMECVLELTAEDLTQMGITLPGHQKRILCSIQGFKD
T3 sequence (P11362 22-822): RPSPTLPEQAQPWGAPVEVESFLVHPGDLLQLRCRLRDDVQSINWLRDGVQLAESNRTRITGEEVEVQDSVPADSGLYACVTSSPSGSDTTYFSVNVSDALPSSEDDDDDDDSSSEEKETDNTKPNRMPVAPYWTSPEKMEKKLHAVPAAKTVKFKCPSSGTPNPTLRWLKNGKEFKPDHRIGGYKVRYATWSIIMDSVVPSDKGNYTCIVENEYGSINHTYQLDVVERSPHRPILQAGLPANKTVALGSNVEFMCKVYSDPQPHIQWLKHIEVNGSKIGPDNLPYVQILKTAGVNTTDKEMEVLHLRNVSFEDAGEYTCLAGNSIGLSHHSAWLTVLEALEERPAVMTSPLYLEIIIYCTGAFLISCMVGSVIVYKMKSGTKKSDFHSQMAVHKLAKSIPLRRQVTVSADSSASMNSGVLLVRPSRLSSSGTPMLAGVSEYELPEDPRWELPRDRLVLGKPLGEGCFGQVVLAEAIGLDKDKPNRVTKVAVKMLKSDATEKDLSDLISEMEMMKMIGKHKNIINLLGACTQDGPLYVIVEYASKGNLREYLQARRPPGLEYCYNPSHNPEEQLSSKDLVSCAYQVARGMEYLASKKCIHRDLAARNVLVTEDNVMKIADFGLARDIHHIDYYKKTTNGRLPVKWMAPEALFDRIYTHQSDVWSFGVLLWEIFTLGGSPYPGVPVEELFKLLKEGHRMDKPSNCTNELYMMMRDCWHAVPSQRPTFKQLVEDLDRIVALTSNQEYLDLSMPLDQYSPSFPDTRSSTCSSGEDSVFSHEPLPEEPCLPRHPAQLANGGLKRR
T8 sequence (Q92630 whole entry): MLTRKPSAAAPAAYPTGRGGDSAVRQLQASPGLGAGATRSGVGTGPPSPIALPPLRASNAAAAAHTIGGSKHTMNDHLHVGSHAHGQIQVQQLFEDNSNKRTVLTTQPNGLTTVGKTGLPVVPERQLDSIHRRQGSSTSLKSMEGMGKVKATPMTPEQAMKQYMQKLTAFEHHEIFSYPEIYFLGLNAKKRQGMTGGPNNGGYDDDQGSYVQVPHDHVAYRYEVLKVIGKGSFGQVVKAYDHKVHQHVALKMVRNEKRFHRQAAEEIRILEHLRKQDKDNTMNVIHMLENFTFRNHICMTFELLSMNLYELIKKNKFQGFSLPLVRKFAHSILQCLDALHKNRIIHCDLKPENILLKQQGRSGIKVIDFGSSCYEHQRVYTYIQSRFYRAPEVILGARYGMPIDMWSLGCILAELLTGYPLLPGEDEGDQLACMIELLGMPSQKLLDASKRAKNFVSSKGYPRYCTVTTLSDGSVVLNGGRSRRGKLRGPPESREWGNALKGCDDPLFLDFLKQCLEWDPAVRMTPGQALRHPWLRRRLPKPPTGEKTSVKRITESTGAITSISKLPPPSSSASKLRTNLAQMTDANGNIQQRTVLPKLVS
T10 sequence (P22455 22-802): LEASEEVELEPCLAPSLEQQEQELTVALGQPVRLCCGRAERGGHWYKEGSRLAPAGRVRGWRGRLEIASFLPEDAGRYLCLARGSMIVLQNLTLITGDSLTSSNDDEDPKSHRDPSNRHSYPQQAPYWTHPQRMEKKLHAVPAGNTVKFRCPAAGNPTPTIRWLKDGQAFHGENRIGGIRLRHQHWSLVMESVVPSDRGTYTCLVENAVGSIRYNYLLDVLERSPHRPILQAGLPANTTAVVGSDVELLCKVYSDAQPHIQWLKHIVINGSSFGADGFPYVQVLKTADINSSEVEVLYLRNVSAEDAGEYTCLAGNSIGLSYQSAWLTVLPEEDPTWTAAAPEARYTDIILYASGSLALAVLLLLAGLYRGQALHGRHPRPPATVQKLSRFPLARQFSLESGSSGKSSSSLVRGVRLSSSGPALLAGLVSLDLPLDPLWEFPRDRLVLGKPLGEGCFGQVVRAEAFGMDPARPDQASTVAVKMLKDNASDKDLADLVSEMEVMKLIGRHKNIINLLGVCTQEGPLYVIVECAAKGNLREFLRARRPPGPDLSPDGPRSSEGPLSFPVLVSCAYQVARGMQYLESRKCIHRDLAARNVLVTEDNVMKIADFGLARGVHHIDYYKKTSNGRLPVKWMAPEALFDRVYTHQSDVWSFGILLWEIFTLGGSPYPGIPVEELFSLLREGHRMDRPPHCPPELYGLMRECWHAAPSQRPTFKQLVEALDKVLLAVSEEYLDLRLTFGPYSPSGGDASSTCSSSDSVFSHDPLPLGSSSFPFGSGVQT
T5 sequence (P08631 whole entry): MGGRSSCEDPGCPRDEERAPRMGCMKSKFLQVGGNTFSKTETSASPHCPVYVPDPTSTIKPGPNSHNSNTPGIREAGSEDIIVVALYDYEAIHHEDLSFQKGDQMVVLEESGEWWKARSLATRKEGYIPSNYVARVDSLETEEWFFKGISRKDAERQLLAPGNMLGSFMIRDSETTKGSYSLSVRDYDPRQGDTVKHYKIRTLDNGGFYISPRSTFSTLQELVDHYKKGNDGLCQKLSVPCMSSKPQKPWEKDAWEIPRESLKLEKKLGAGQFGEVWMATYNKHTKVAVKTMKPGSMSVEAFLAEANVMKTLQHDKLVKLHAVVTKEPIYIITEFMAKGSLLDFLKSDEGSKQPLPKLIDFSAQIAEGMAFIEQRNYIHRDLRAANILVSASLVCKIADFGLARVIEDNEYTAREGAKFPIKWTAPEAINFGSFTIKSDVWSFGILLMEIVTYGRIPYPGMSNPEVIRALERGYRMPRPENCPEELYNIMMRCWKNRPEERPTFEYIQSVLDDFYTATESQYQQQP
T2 sequence (Q15303 26-1308): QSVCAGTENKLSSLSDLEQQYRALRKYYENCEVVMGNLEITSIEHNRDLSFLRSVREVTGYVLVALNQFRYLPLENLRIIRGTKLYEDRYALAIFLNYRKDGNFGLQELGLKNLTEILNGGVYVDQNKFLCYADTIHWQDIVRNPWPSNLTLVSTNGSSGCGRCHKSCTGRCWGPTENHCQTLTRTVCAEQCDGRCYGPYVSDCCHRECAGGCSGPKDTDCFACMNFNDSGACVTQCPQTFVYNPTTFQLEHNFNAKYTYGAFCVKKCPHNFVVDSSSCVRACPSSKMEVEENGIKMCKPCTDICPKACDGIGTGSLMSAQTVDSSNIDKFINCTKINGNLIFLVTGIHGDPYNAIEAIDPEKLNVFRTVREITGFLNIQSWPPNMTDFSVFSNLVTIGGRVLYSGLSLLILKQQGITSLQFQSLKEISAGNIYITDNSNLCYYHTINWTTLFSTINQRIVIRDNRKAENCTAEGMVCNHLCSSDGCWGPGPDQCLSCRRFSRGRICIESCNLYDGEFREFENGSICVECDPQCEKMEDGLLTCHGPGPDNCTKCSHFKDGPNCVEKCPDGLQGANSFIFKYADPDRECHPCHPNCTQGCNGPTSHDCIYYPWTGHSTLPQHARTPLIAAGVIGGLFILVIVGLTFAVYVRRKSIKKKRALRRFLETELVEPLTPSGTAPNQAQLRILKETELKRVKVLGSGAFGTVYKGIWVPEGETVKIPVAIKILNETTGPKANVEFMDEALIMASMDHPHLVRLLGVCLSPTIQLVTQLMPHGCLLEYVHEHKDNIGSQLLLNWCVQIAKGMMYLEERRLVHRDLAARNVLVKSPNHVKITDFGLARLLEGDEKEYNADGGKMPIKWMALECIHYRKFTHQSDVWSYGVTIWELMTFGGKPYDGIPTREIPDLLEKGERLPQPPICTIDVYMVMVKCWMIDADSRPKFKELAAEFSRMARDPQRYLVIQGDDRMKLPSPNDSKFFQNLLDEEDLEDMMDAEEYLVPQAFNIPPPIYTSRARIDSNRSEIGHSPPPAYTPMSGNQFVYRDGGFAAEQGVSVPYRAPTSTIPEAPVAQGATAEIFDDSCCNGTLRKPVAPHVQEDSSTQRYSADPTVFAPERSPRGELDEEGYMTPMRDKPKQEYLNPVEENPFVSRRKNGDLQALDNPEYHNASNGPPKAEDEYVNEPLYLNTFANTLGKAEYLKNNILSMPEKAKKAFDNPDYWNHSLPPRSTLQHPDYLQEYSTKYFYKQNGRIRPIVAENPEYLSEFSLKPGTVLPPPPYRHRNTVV

**Q.** Which results are given for Ibrutinib?
**A.** kinase activity (%) (EPHA1; 0.1 uM Ibrutinib): 87.2%; kinase activity (%) (EPHA1; 1 uM Ibrutinib): 99.1%; kinase activity (%) (ERBB4/HER4; 0.1 uM Ibrutinib): 67.1%; kinase activity (%) (ERBB4/HER4; 1 uM Ibrutinib): 44.1%; kinase activity (%) (SYK; 0.1 uM Ibrutinib): 90.5%; kinase activity (%) (SYK; 1 uM Ibrutinib): 109.7%; kinase activity (%) (FGFR1; 0.1 uM Ibrutinib): 98.8%; kinase activity (%) (FGFR1; 1 uM Ibrutinib): 105.8%; kinase activity (%) (ERBB3/HER3; 0.1 uM Ibrutinib): 100.0%; kinase activity (%) (ERBB3/HER3; 1 uM Ibrutinib): 206.1%; kinase activity (%) (HCK; 0.1 uM Ibrutinib): 102.1%; kinase activity (%) (HCK; 1 uM Ibrutinib): 105.0%; kinase activity (%) (TNK2; 0.1 uM Ibrutinib): 99.9%; kinase activity (%) (TNK2; 1 uM Ibrutinib): 86.9%; kinase activity (%) (EGFR/ERBB1; 0.1 uM Ibrutinib): 81.2%; kinase activity (%) (EGFR/ERBB1; 1 uM Ibrutinib): 89.7%; kinase activity (%) (DYRK2; 0.1 uM Ibrutinib): 97.3%; kinase activity (%) (DYRK2; 1 uM Ibrutinib): 82.3%; kinase activity (%) (Tec; 0.1 uM Ibrutinib): 68.7%; kinase activity (%) (Tec; 1 uM Ibrutinib): 62.0%; kinase activity (%) (FGFR4; 0.1 uM Ibrutinib): 81.5%; kinase activity (%) (FGFR4; 1 uM Ibrutinib): 99.1%; kinase activity (%) (TESK2; 0.1 uM Ibrutinib): 85.8%; kinase activity (%) (TESK2; 1 uM Ibrutinib): 83.5%; kinase activity (%) (EPHA3; 0.1 uM Ibrutinib): 89.1%; kinase activity (%) (EPHA3; 1 uM Ibrutinib): 101.3%; kinase activity (%) (EPHA7; 0.1 uM Ibrutinib): 92.3%; kinase activity (%) (EPHA7; 1 uM Ibrutinib): 94.9%; kinase activity (%) (YES1; 0.1 uM Ibrutinib): 101.6%; kinase activity (%) (YES1; 1 uM Ibrutinib): 97.6%; growth inhibition rate (OVKATE): 45%; sensitivity of cell line (COV318; 0, 1 nM, 10 nM, 100 nM, 1 uM or 10 uM for 7 days): apparently resistant; growth inhibition rate (COV318; 1 uM, 7 days, Trypan blue exclusion, vs DMSO): 8%; % Survival (COV318; percentage of viable cells after a 24-hour treatment of 1 nM ibrutinib): 91.5%
